Measurements from paper PMC10590383, “Repurposing conformational changes in ANL superfamily enzymes to rapidly generate biosensors for organic and amino acids” (Nature Communications, 2023).

Assay: Dose–response curve of purified […]s with phenylalanine
Assay type: biochemical
Procedure: Fig. 3 Dose–response curves and fluorescence spectrums of […]s. a, c, e, g, i, k Dose–response curve of purified […]s with increasing concentrations of ligand in 100 mM Tris-HCl buffer (pH=7.5). The normalized ΔF/F0 value increased after ligand binding. All data shown are mean ± S.D. (n = 3 biologically independent samples). b, d, f, h, j, l The fluorescence spectra of […]s changed as the ligand concentration increased. All data shown are mean ± S.D. (n = 3 biologically independent samples). Source data are provided as a Source data file.
Fig. 4 Engineering ligand specificity of GrsA-PheA for generating […]s. a The selectivity-conferring code of Phe and Leu A domains. b–f Dose–response curve of purified […]s with increasing concentrations of ligands in 100 mM Tris-HCl buffer (pH=7.5). All data shown are means ± S.D. (n = 3 biologically independent samples). g A series of […] reactions was tested to show the […]’s specificity with 20 proteinogenic amino acids. The values on the heatmap represent the ΔF/F0 value normalized to each […]’s maximal ΔF/F0 value ((ΔF/F0)/maximal ΔF/F0). The concentrations of 20 amino acids were 100 μM. The color indicates the average value of three independent biological replicates after 15 min. All data shown are means ± S.D. (n = 3 biologically independent samples). Source data are provided as a Source data file.
The study conducted dose–response curve, substrate specificity, and fluorescent spectrum analyses in 100-mM Tris buffer (pH = 7.5), while pH stability experiments were performed in 100-mM Tris buffer at three different pH values (6.5, 7.5, and 8.5) at room temperature. […] protein at a concentration of 0.75 μM, various small molecule concentrations, 1 mM ATP, and 2.5 mM MgCl2 were used in the experiments. Fluorescent signals were detected using a Microplate Reader (Synergy H4, Bio Tek) at an excitation/emission wavelength of 460 nm/510 nm or 480 nm/510 nm. The dose-response curve was determined immediately after the addition of the analyte. The total duration of the measurement was 15 min, with readings taken at one-minute intervals. The dose-response curve was plotted using the fluorescence values obtained after achieving stability in the fluorescence signal. The dose-response curves were fitted using the logistic model LOGISTIC5 available in Origin 2021, which could provide a more adequate fit to asymmetric dose-response data[62],[63]. Excitation spectra were scanned from 300 to 540 nm with a step size of 5 nm, and the emission wavelength was set to 560 nm. Emission spectra were scanned from 470 to 700 nm with a step size of 5 nm, and the excitation wavelength was set to 450 nm. The thermal stability of […] was analyzed using the UNcle multifunctional protein stability analysis system. Measurements were performed in 20 mM MOPS buffer with 2 mM DTT at a sample concentration of 1 mg/mL. Absolute fluorescence quantum yields were measured using an absolute photoluminescence quantum yield spectrometer (FS5, Edinburgh).

SMILES: N[C@@H](Cc1ccccc1)C(=O)O [Phe]
- AVE, dose-response Fig. 4 b (substrate Phe 0.001 μM): 0
- AVE, dose-response Fig. 4 b (substrate Phe 0.005 μM): 0.04668
- AVE, dose-response Fig. 4 b (substrate Phe 0.01 μM): 0.05356
- AVE, dose-response Fig. 4 b (substrate Phe 0.05 μM): 0.1413
- AVE, dose-response Fig. 4 b (substrate Phe 0.1 μM): 0.2634
- AVE, dose-response Fig. 4 b (substrate Phe 0.5 μM): 0.9215
- AVE, dose-response Fig. 4 b (substrate Phe 1 μM): 1.384
- AVE, dose-response Fig. 4 b (substrate Phe 5 μM): 2.412
- AVE, dose-response Fig. 4 b (substrate Phe 10 μM): 2.788
- AVE, dose-response Fig. 4 b (substrate Phe 25 μM): 3.108
- AVE, dose-response Fig. 4 b (substrate Phe 50 μM): 3.25
- AVE, dose-response Fig. 4 b (substrate Phe 100 μM): 3.385
- AVE, dose-response Fig. 4 c (substrate Phe 0.5 μM): 0
- AVE, dose-response Fig. 4 c (substrate Phe 1 μM): 0.02176
- AVE, dose-response Fig. 4 c (substrate Phe 2 μM): 0.04684
- AVE, dose-response Fig. 4 c (substrate Phe 5 μM): 0.0476
- AVE, dose-response Fig. 4 c (substrate Phe 10 μM): 0.102
- AVE, dose-response Fig. 4 c (substrate Phe 20 μM): 0.1609
- AVE, dose-response Fig. 4 c (substrate Phe 50 μM): 0.1914
- AVE, dose-response Fig. 4 c (substrate Phe 100 μM): 0.2096
- AVE, dose-response Fig. 4 c (substrate Phe 200 μM): 0.2332
- AVE, dose-response Fig. 4 c (substrate Phe 500 μM): 0.2962
- AVE, dose-response Fig. 4 c (substrate Phe 750 μM): 0.3509
- AVE, dose-response Fig. 4 c (substrate Phe 1000 μM): 0.2649
- AVE, dose-response Fig. 4 e (substrate Phe 0.1 μM): -6.4763e-17
- AVE, dose-response Fig. 4 e (substrate Phe 0.2 μM): 0.02607
- AVE, dose-response Fig. 4 e (substrate Phe 1 μM): 0.02065
- AVE, dose-response Fig. 4 e (substrate Phe 2 μM): 0.01654
- AVE, dose-response Fig. 4 e (substrate Phe 10 μM): 0.06065
- AVE, dose-response Fig. 4 e (substrate Phe 20 μM): 0.08275
- AVE, dose-response Fig. 4 e (substrate Phe 100 μM): 0.1347
- AVE, dose-response Fig. 4 e (substrate Phe 200 μM): 0.2309
- AVE, dose-response Fig. 4 e (substrate Phe 500 μM): 0.3796
- AVE, dose-response Fig. 4 e (substrate Phe 1000 μM): 0.4613
- AVE, dose-response Fig. 4 e (substrate Phe 1500 μM): 0.4963
- AVE, dose-response Fig. 4 e (substrate Phe 2000 μM): 0.5161
- AVE, dose-response Fig. 4 f (substrate Phe 0.0001 μM): -0.000122
- AVE, dose-response Fig. 4 f (substrate Phe 0.001 μM): 0.002395
- AVE, dose-response Fig. 4 f (substrate Phe 0.01 μM): 0.009697
- AVE, dose-response Fig. 4 f (substrate Phe 0.1 μM): 0.01529
- AVE, dose-response Fig. 4 f (substrate Phe 1 μM): -0.009047
- AVE, dose-response Fig. 4 f (substrate Phe 10 μM): 0.009571
- AVE, dose-response Fig. 4 f (substrate Phe 50 μM): 0.1062
- AVE, dose-response Fig. 4 f (substrate Phe 100 μM): 0.2173
- AVE, dose-response Fig. 4 f (substrate Phe 500 μM): 0.5047
- AVE, dose-response Fig. 4 f (substrate Phe 1000 μM): 0.643
- AVE, dose-response Fig. 4 f (substrate Phe 5000 μM): 0.6763
- AVE, dose-response Fig. 4 f (substrate Phe 10000 μM): 0.7368
- AVE, dose-response Fig. 4 d (substrate Phe 0.01 μM): 0.02814
- AVE, dose-response Fig. 4 d (substrate Phe 0.1 μM): 0.03519
- AVE, dose-response Fig. 4 d (substrate Phe 1 μM): 0.04924
- AVE, dose-response Fig. 4 d (substrate Phe 5 μM): 0.06403
- AVE, dose-response Fig. 4 d (substrate Phe 10 μM): 0.08037
- AVE, dose-response Fig. 4 d (substrate Phe 50 μM): 0.1108
- AVE, dose-response Fig. 4 d (substrate Phe 100 μM): 0.1713
- AVE, dose-response Fig. 4 d (substrate Phe 200 μM): 0.2373
- AVE, dose-response Fig. 4 d (substrate Phe 500 μM): 0.3495
- AVE, dose-response Fig. 4 d (substrate Phe 750 μM): 0.3806
- AVE, dose-response Fig. 4 d (substrate Phe 1000 μM): 0.3842
- fluorescence response of GECFINDER, AVE of 3 repeats (Supplementary Fig. 3 a, Phe 0.001 μM): 0
- fluorescence response of GECFINDER, AVE of 3 repeats (Supplementary Fig. 3 a, Phe 0.005 μM): 0.03394
- fluorescence response of GECFINDER, AVE of 3 repeats (Supplementary Fig. 3 a, Phe 0.01 μM): 0.09128
- fluorescence response of GECFINDER, AVE of 3 repeats (Supplementary Fig. 3 a, Phe 0.1 μM): 0.1211
- fluorescence response of GECFINDER, AVE of 3 repeats (Supplementary Fig. 3 a, Phe 1 μM): 0.1406
- fluorescence response of GECFINDER, AVE of 3 repeats (Supplementary Fig. 3 a, Phe 10 μM): 0.1472
- fluorescence response of GECFINDER, AVE of 3 repeats (Supplementary Fig. 3 a, Phe 50 μM): 0.1578
- fluorescence response of GECFINDER, AVE of 3 repeats (Supplementary Fig. 3 a, Phe 100 μM): 0.198
- fluorescence response of GECFINDER, AVE of 3 repeats (Supplementary Fig. 3 a, Phe 500 μM): 0.3919
- fluorescence response of GECFINDER, AVE of 3 repeats (Supplementary Fig. 3 a, Phe 1000 μM): 0.5221
- fluorescence response of GECFINDER, AVE of 3 repeats (Supplementary Fig. 3 a, Phe 5000 μM): 0.7757
- fluorescence response of GECFINDER, AVE of 3 repeats (Supplementary Fig. 3 a, Phe 10000 μM): 0.7576
- fluorescence response of GECFINDER, AVE of 3 repeats (Supplementary Fig. 3 b, Phe 0.001 μM): -4.337e-17
- fluorescence response of GECFINDER, AVE of 3 repeats (Supplementary Fig. 3 b, Phe 0.005 μM): 0.01069
- fluorescence response of GECFINDER, AVE of 3 repeats (Supplementary Fig. 3 b, Phe 0.01 μM): -0.003867
- fluorescence response of GECFINDER, AVE of 3 repeats (Supplementary Fig. 3 b, Phe 0.1 μM): 0.001408
- fluorescence response of GECFINDER, AVE of 3 repeats (Supplementary Fig. 3 b, Phe 1 μM): 0.04065
- fluorescence response of GECFINDER, AVE of 3 repeats (Supplementary Fig. 3 b, Phe 10 μM): 0.112
- fluorescence response of GECFINDER, AVE of 3 repeats (Supplementary Fig. 3 b, Phe 50 μM): 0.2916
- fluorescence response of GECFINDER, AVE of 3 repeats (Supplementary Fig. 3 b, Phe 100 μM): 0.4046
- fluorescence response of GECFINDER, AVE of 3 repeats (Supplementary Fig. 3 b, Phe 500 μM): 0.8587
- fluorescence response of GECFINDER, AVE of 3 repeats (Supplementary Fig. 3 b, Phe 1000 μM): 1.065
- fluorescence response of GECFINDER, AVE of 3 repeats (Supplementary Fig. 3 b, Phe 5000 μM): 1.452
- fluorescence response of GECFINDER, AVE of 3 repeats (Supplementary Fig. 3 b, Phe 10000 μM): 1.455
